Data as given in a melting point compilation (Tetko et al.; mined from patent text by program, amines drawn as free bases though some values may be those of a salt).

SMILES	melting point [°C]
CCCCc1c(C(=O)c2ccc(O)cc2)n(C)c2ccc([N+](=O)[O-])cc12	172
Cn1c(=O)c(-c2ccc(Cl)cc2Cl)cc2c3cc(-c4ccno4)ccc3[nH]c21	320 to 323
N#Cc1c(N2CCc3ccccc3CC2)nc(NCCCOc2ccccc2)[nH]c1=O	175 to 180
CC(=O)NCC=C1CCc2ccc3nc(C)oc3c21	188 to 190
CCN(CC)CC1CN=C(N)O1 (configuration not stated)	90
COc1ccccc1C(=O)Nc1ccc(N2CCOCC2)cc1C(C)=O	158 to 160
O=C(Nc1ccc2ccc(Oc3ccccc3)nc2n1)C1=CSCCS1	240
COc1ccc(C(=O)N(C(=O)c2ccc(OC)cc2)c2nc3ccc(N(C)C)cc3c(NCc3ccco3)c2C#N)cc1	143
C=C1c2ccccc2CC12CCC(N1CCCCC1)CC2 (configuration not stated)	93 to 95
Nc1c(F)c(Cc2ccc(F)cc2)nc(C=O)c1Cl	109 to 111
CCc1cc(Br)c2c(=O)oc(=O)[nH]c2c1	236 to 237
C=Cc1ccc(NC(=O)C(C)C)nc1	77 to 78
COC(=O)C[C@@H]1CCC/C1=C\Cc1c(O)c2c(c(C)c1OC)COC2=O	72 to 74
COCCCn1c(O)nc2ccc(C(F)(F)F)cc21	83 to 84
Cc1ccc(S(=O)(=O)c2ccc3c(c2)c(CCN(C)C(=O)OC(C)(C)C)cn3C)cc1	143 to 145
CN(C(=O)N[C@@H](Cc1ccc(Nc2nccc3cnccc23)cc1)C(=O)O)c1ccccc1Cc1ccccc1	141
CC(NC(=O)CNC(=O)c1c(Cl)cccc1Cl)c1ccccc1 (configuration not stated)	155
COc1cc(N)c(Cl)cc1C(=O)NC1CCN(CCn2c(=O)[nH]c3ccccc3c2=O)CC1OC (configuration not stated)	271
CCCN(c1cccc(-c2ccnc3c([N+](=O)[O-])cnn23)c1)S(C)(=O)=O	165 to 167
CCOC(=O)C(=C1CCCN1C)c1ccc(OC)cc1	81 to 82
O=C(O)CN1CC(=O)N(Cc2cccc([N+](=O)[O-])c2)C1=O	165 to 166
O=C1c2ccccc2C(O)(c2ccccc2)N1CC(c1ccccc1)c1ccccc1 (configuration not stated)	230
CN1C2C=C(c3ccc(F)cc3)CC1CC2 (configuration not stated)	62 to 63
COC(=O)C(=C(C)C)N1CC(NC(=O)OCc2ccccc2)C1=O (configuration not stated)	135 to 137
COc1ccc(C(=O)C(=O)c2cccnc2)cc1	70 to 72
CCOC(=O)NNc1ccc(N(CC)CC(C)O)nn1 (configuration not stated)	160 to 162

SMILES	melting point [°C]
CN(C)C1(c2ccccc2)CCC(c2cccs2)(c2[nH]c3ccccc3c2CCc2ccncc2)CC1 (configuration not stated)	54 to 60
CCC(CN1C(=O)c2ccccc2C1=O)n1cnc(-c2cccnc2)c1 (configuration not stated)	150 to 152
Cc1cnc(C(=O)O)cc1C(c1cc(F)ccc1F)S(=O)(=O)c1ccc(Cl)cc1 (configuration not stated)	105 to 107
C=Cc1nc(Cl)nc(Cl)c1OC	60 to 61
COC(=O)c1c(Br)c(Br)c(C(=O)OC)c(Br)c1Br	207 to 210
Cn1cc(-c2ccc(=O)n(Cc3cccc(-c4ncc(OCCO)cn4)c3)n2)cn1	182 to 183
CC1=CC(=O)C(N)=CC1=N	205
CC(=O)Nc1ccc(N)c(C(O)c2ccccc2Cl)c1 (configuration not stated)	137 to 138
CC(C)(C)c1cc(C=CC(=O)NN)cc(C(C)(C)C)c1O	166
O=C(O)Cn1c(=O)c2cc(Cl)ccc2n(Cc2ccc(Br)cc2F)c1=O	189
CCNC(=O)CCc1cnoc1-c1ccccc1	75 to 76
Cn1nc(C(F)(F)F)cc1Oc1ccnc(-c2ccc(F)cc2)n1	101 to 102
Cc1nc2nccc(-c3cccnc3)n2n1	244 to 245
O=C(O)c1ccccc1-c1cc(-c2ccc(O)cc2)[nH]n1	260 to 264
CC1(C)CCC(C)(C)C2=C1CC(C(=O)O)C2	125 to 129
CC(=O)C1=CCC2C3CCC4CC(O)CCC4(C)C3CCC12C (configuration not stated)	186 to 188
CC(C)(C)NC(=O)CC(Cc1cccc2ccccc12)C(=O)O (configuration not stated)	188 to 190
OCCOCCNc1ncncc1Cc1ccccc1	86 to 87
Fc1cccc(CSc2nnc(-c3ccnc4[nH]ccc34)o2)c1	190 to 191
CC(=O)CN(C(=O)c1ccco1)c1c(C)cccc1C	90 to 91
Cc1c(C(F)(F)F)cnn(-c2cc(OCCC3OCCCO3)c(Cl)cc2F)c1=O	112
COc1ccc(-c2nc(-c3ccccc3)sc2-c2ccc(OC)cc2)cc1	117 to 118
CC(C)c1ccc(-c2csc(-c3cccc(C(=O)O)c3)n2)cc1	206 to 208
CCOC(=O)C1=C(C)NC(NC(C)=O)=C(C(=O)OCC)C1C (configuration not stated)	105
Cc1[nH]c(=O)c(C#N)cc1-c1ccc(OCCCC(=O)O)cc1	247 to 249
C=CC(=O)Oc1ccc(-c2cccc(-c3ccc(OC(=O)C=C)cc3)c2)cc1	106

SMILES	melting point [°C]
COc1cccc([C@]23CCN(C)C[C@@H]2CCC2(C3)OCCO2)c1 (relative stereo)	124 to 126
Cn1c(Nc2c(Cl)cccc2Cl)nc2ccc3c(c21)C(=O)NC(C)(C)N3	238 to 239
Cc1ccc2c(-c3cnc4[nH]cc(C(=O)N[C@H](C)C(=O)N5CC(C#N)C5)c4n3)nn(C)c2c1	260 to 275
O=C(NCCCSc1ccccn1)c1cccs1	81 to 82
S=C1N[C@@H](c2ccccc2)[C@H](c2ccccc2)N1 (relative stereo)	212 to 214
C=C(C)C(=O)Oc1ccc(S(=O)(=O)Nc2ccccc2)cc1	101 to 102
CC(=O)Nc1cccc(/C=C/C(=O)N2CC(CCl)c3c2cc(NC(=O)OCC2c4ccccc4-c4ccccc42)c2ccccc32)c1 (configuration not stated)	208 to 209
COCCCOc1cc(CC(CC(NC(=O)OC(C)(C)C)C2CC(C)C(=O)O2)C(C)C)ccc1OC (configuration not stated)	86 to 87
COc1ccccc1C(=NO)c1sccc1Br	129 to 130
COc1ccc2c(c1OC)CCN(Cc1ccc(-c3ccc(-c4cccc(N)n4)cc3)cc1)C2	205 to 209
O=C(NC(=O)c1c(Cl)cccc1OCc1ccccc1)Nc1ccc(C(F)(F)F)cc1	264
CCCCCCCCn1nnnc1I	40
COC(=O)CCc1cc2cc(Cl)ccc2n1S(=O)(=O)c1cc(C)cc(C)c1	146 to 150
CC(=O)NCC1CN(C(c2ccccc2)c2ccccc2)C1	117 to 119
CCN(CC)CCCCC(=O)c1ccc2c(c1)C(=O)c1cc(C(=O)CCCCN(CC)CC)ccc1-2	108 to 110
N#CC1(N2CCCC2)CCC2(CC1)OCCO2	65 to 67
Cn1c(COc2ccc(CC3SC(=O)NC3=O)cc2)nc2ccc(Oc3ccc(NC(=O)c4ccc(F)cc4F)cc3)cc21 (configuration not stated)	172 to 174
CC(C)c1ccc(CCC(O)CC2CCCCC2)cc1NC(=O)CC1c2ccccc2Oc2ccccc21 (configuration not stated)	144 to 145
O=C1c2cccnc2N(c2ccccc2)C(=O)C12CCCC2	178 to 179
O=C(CC=C(Cl)Cl)Oc1ccc(F)cc1	47 to 50
CSc1ccc(C2=C(c3cccs3)C(=O)C(C)(C)O2)cc1	113 to 114
O=S1(=O)CCON=C1c1c(Cl)cccc1Cl	180 to 182
O[C@@H](COc1cccc(-c2noc3ccsc23)c1)CN1CCN(c2ccccc2C(F)(F)F)CC1	77 to 79
CC(C)(C)C(=O)Nc1ccc(C(F)(F)F)cc1C=O	69 to 73
COC(=O)[C@@H]1C[C@H](OC(=O)c2cccs2)C(=O)[C@H]2[C@@]1(C)CC[C@H]1C(=O)O[C@H](c3ccoc3)C[C@]21C	143 to 145
CS(=O)(=O)c1ccc(C(CC2CCCC2)C(=O)O)cc1S(C)(=O)=O (configuration not stated)	64 to 68

SMILES	melting point [°C]
Nc1ccccc1C(=O)NCCN1CCC2(CC1)C(=O)NCN2c1ccc(F)cc1	195
COc1ccc(CCc2ccc(C(F)(F)F)cc2)cc1	80
N#CC1(c2ccccc2)CCN(C(=O)CC(c2ccccc2)(c2ccccc2)c2ccccc2)CC1	188 to 190
CC(C)Nc1cc(=O)n(-c2ccccc2)nc1-c1nc[nH]n1	203 to 205
Cn1cc(Oc2ccccc2)c(=O)c(-c2cccc(C(F)(F)F)c2)c1	144 to 145
CCC(=O)NC1Cc2ccccc2C(Cc2ccccc2)C1 (configuration not stated)	148 to 149
CSc1ccc2oc3ccccc3c2c1	85 to 87
O=C(c1ccccc1)c1noc(CS(=O)c2ccccc2)n1 (configuration not stated)	79 to 81
COC(=O)C1=C(C)N=C(OC)N(C(=O)Oc2ccc([N+](=O)[O-])cc2)C1c1ccc2nonc2c1 (configuration not stated)	180 to 183
NS(=O)(=O)c1cccc(C=O)c1	108 to 109
Cc1nc(-c2ccc3c(c2)c(-c2cc4cccnc4[nH]2)cn3C)no1	290 to 294
CC(=NO)c1nc(-c2cccnc2)[nH]c1C	215 to 216
Cc1noc2cc(OCCCNCC3CCc4ccc(O)cc4O3)ccc12 (configuration not stated)	169 to 170
COc1ccc(C(O)(CC#N)c2ccc(OC)cc2)cc1	102
CC1(C)SC(=O)N(Cc2ccccc2[N+](=O)[O-])C1O (configuration not stated)	139 to 143
CC(C)CNC(=O)C=CC=CCCCCCCCOc1cccc(Cl)n1	80 to 81
CCOC(=O)N1CCN(c2ccc(O)cc2)CC1	169
Cc1ccc(C2C(=O)CCCC2=O)c(C)c1	143 to 145
COC(=O)NC1CCc2sc(Cl)c(C(=O)CCC(=O)O)c2C1 (configuration not stated)	178 to 179
COc1ccc(-n2ncc(C(=O)Nc3ccc(N4CCC(N5CCOCC5)CC4)c(C#N)c3)c2C)cc1	238
CC(=O)NC12CC3(C)CC(C)(CC(O)(C3)C1)C2	194 to 195
CCCCCCCCCCCCCCCc1cc2cc(C(=O)O)ccc2n1C	127 to 128
Cc1cnccc1C#N	45 to 47
Cc1ccc(S(=O)(=O)n2ccc3c(-c4c(C)nc5ccc(Cl)nn45)ccnc32)cc1	138 to 140
